Consider 23 compounds from patent US20210317092A1 (BAYER PHARMA AKTIENGESELLSCHAFT, priority 2016, published 2021).

Where two headings read alike, the source gives them in different places.

Assay [1] has as its target T1, native human Bradykinin B1 receptor (Homo sapiens, UniProt P46663).
T1 construct: which express native human Bradykinin B1 receptor after induction with human IL-10; Coriell Institute; host or cells: IMR-90 human foetal lung fibroblasts, cytokine-induced
T1 sequence (P46663 1-353): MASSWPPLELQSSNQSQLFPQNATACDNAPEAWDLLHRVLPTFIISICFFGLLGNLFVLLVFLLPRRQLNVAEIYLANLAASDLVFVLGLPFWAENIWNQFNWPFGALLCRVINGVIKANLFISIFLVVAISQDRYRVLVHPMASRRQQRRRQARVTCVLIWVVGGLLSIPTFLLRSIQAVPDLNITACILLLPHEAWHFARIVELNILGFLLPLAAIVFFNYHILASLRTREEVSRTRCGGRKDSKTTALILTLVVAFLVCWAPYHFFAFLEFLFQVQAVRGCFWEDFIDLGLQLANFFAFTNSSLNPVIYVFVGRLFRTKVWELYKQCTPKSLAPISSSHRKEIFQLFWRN
The assay can be described thus: Calcium flux Assay (FLIPR) with human fibroblasts expressing Bradykinin B1 receptor (hB1 IMR-90). The class given is cell-based. The settings on record: IMR-90 human fibroblasts expressing native Bradykinin B1 receptor. The essentials: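 IMR-90 human foetal lung fibroblasts induced with 0.35 ng/mL […] for 3 h, Fluo-4/AM-loaded, preincubated with compound (8 concentrations, triplicate) for 30 min at 28 °C, then challenged with Lys-(Des-Arg)-bradykinin at EC90. Ca2+ fluorescence was read at 538 nm; full inhibition set by 20 µM Lys-(Des-Arg-Leu)-bradykinin; IC50 derived.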

Assay [2] deals with T2, human Bradykinin B1 receptor (Homo sapiens, UniProt P46663).
T2 construct: host or cells: CHO-K1
T2 sequence (P46663 1-353): T1 sequence (P46663 1-353)
The assay can be described thus: Calcium flux Assay (FLIPR) with recombinant CHO-K1 cells expressing human Bradykinin B1 receptor, in presence (hB1 IC50) or absence (hB1 free IC50) of 0.1% BSA. In kind it is cell-based.

The mark [3] stands for this setting: in absence of 0.1% BSA, read-out: hB1 free IC50.
Where [4] appears, read: in presence of 0.1% BSA, read-out: hB1 IC50.

What is called IC50 is the concentration at which inhibition is half-maximal. `COc1ccc(-c2c(F)cc(NC(=O)C3(c4cccc(Cl)c4)CC3)cc2-c2nnn[nH]2)cc1OC` [Example 234, 1-(3-Chlorophenyl)-N-[2-fluoro-3′,4′-dimethoxy-6-(1H-tetrazol-5-yl)biphenyl-4-yl]cyclopropane carboxamide]: the IC50 in assay [1] is 18.6 nM; in assay [2] (setting [3]), 11 nM; in assay [2] (setting [4]), 29.9 nM.
Consider `CCOc1ccc(-c2c(F)cc(NC(=O)C3(c4cccc(Cl)c4)CC3)cc2-c2nnn[nH]2)cn1` [Example 236, 1-(3-chlorophenyl)-N-[4-(6-ethoxypyridin-3-yl)-3-fluoro-5-(1H-tetrazol-5-yl)phenyl] cyclopropane-carboxamide], for which the IC50 in assay [1] worked out at 15.6 nM; in assay [2] (setting [3]), 2.9 nM.
As to `CCOc1ccc(-c2c(F)cc(NC(=O)C3(c4ccc(C(F)(F)F)cc4F)CC3)cc2-c2nnn[nH]2)cn1` [Example 240, N-[4-(6-ethoxypyridin-3-yl)-3-fluoro-5-(1H-tetrazol-5-yl)phenyl]-1-[2-fluoro-4-(trifluoromethyl)phenyl] cyclopropane-carboxamide], the IC50 in assay [1] worked out at 2.83 nM; in assay [2] (setting [3]) it was 2.35 nM.
In the same order, the values of `O=C(Nc1cc(F)c(-c2ccc(C(F)(F)F)nc2)c(-c2nnn[nH]2)c1)C1(c2cccc(Cl)c2)CC1` [Example 241, 1-(3-chlorophenyl)-N-{3-fluoro-5-(1H-tetrazol-5-yl)-4-[6-(trifluoromethyl)pyridin-3-yl]phenyl} cyclopropane-carboxamide] are 127 nM and 54.2 nM.
On to `O=C(Nc1cc(F)c(-c2ccc(C(F)(F)F)nc2)c(-c2nnn[nH]2)c1)C1(c2ccc(C(F)(F)F)cc2F)CC1` [Example 242, N-{3-fluoro-5-(1H-tetrazol-5-yl)-4-[6-(trifluoromethyl)pyridin-3-yl]phenyl}-1-[2-fluoro-4-(trifluoromethyl)phenyl] cyclopropane-carboxamide], for which the IC50 is 22.8 nM in assay [1] and 9.76 nM in assay [2] (setting [3]).
With `O=C(Nc1cc(F)c(-c2ccnc(C(F)(F)F)c2)c(-c2nnn[nH]2)c1)C1(c2cccc(Cl)c2)CC1` [Example 243, 1-(3-chlorophenyl)-N-{3-fluoro-5-(1H-tetrazol-5-yl)-4-[2-(trifluoromethyl)pyridin-4-yl]phenyl} cyclopropane-carboxamide], the values for the IC50 in assay [1] and in assay [2] (setting [3]) were 575 nM and 203 nM, respectively.
In the same order, the values of `O=C(Nc1cc(F)c(-c2ccnc(C(F)(F)F)c2)c(-c2nnn[nH]2)c1)C1(c2ccc(F)c(F)c2)CC1` [Example 244, 1-(3,4-difluorophenyl)-N-{3-fluoro-5-(1H-tetrazol-5-yl)-4-[2-(trifluoromethyl)pyridin-4-yl]phenyl} cyclopropane-carboxamide] are 512 nM and 176 nM.
For `Cc1ccc(-c2c(F)cc(NC(=O)C3(c4cccc(Cl)c4)CC3)cc2-c2nnn[nH]2)cn1` [Example 245, 1-(3-chlorophenyl)-N-[3-fluoro-4-(6-methylpyridin-3-yl)-5-(1H-tetrazol-5-yl)phenyl] cyclopropane-carboxamide], in that order: 7.85 nM and 8.11 nM.
Regarding `CCOc1ccc(-c2c(Cl)cc(NC(=O)C3(c4cccc(Cl)c4)CC3)cc2-c2nnn[nH]2)cn1` [Example 247, N-[3-chloro-4-(6-ethoxypyridin-3-yl)-5-(1H-tetrazol-5-yl)phenyl]-1-(3-chlorophenyl) cyclopropane-carboxamide], the IC50 came out at 37.3 nM in assay [1], 20 nM in assay [2] (setting [3]) and 61.8 nM in assay [2] (setting [4]).
For `CCOc1ccc(-c2c(Cl)cc(NC(=O)C3(c4cccc(Cl)c4F)CC3)cc2-c2nnn[nH]2)cn1` [Example 248, N-[3-chloro-4-(6-ethoxypyridin-3-yl)-5-(1H-tetrazol-5-yl)phenyl]-1-(3-chloro-2-fluoropheny) cyclopropane-carboxamide], the values for the IC50 in assay [1] and in assay [2] (setting [3]) were 25.2 nM and 14.4 nM, respectively.
On to `O=C(Nc1ccc(-c2ccnc(C(F)F)c2)c(-c2nnn[nH]2)c1)C1(c2ccc(C(F)(F)F)cc2F)CC1` [Example 258, N-{4-[2-(difluoromethyl)pyridin-4-yl]-3-(1H-tetrazol-5-yl)phenyl}-1-[2-fluoro-4-(trifluoromethyl)phenyl]cyclopro-panecarboxamide], for which the IC50 in assay [1] is 47.3 nM; in assay [2] (setting [3]) it was 35.2 nM.
For the compound `O=C(Nc1ccc(-c2ccc(C(F)F)nc2)c(-c2nnn[nH]2)c1)C1(c2ccc(C(F)(F)F)cc2F)CC1` [Example 259, N-{4-[6-(difluoromethyl)pyridin-3-yl]-3-(1H-tetrazol-5-yl)phenyl}-1-[2-fluoro-4-(trifluoromethyl)phenyl]cyclopro-panecarboxamide], the IC50 stood at 10.6 nM in assay [1] and 3.52 nM in assay [2] (setting [3]).
As for `O=C(Nc1ccc(-c2ccc(C(F)F)nc2)c(-c2nnn[nH]2)c1)C1(c2cccc(Cl)c2)CC1` [Example 260, 1-(3-chlorophenyl)-N-{4-[6-(difluoromethyl)pyridin-3-yl]-3-(1H-tetrazol-5-yl)phenyl}cyclopro-panecarboxa-mide], the figures for the half-inhibitory concentration (IC50) in assay [1] and in assay [2] (setting [3]) were 14.9 nM and 18.8 nM, respectively.
Take `O=C(Nc1ccc(-c2cnc(C(F)(F)F)nc2)c(-c2nnn[nH]2)c1)C1(c2ccc(C(F)(F)F)cc2F)CC1` [Example 261, 1-[2-fluoro-4-(trifluoromethyl)phenyl]-N-{3-(1H-tetrazol-5-yl)-4-[2-(trifluoromethyl)pyrimidin-5-yl]phenyl}cyclopro-panecarboxa-mide]: the IC50 in assay [1] was determined as 204 nM; in assay [2] (setting [3]), 212 nM.
For `CCOc1ccc(-c2cc(O)c(NC(=O)C3(c4cccc(Cl)c4)CC3)cc2-c2nnn[nH]2)cn1` [Example 263, 1-(3-chlorophenyl)-N-[4-(6-ethoxypyridin-3-yl)-2-hydroxy-5-(1H-tetrazol-5-yl)phenyl]cyclopro-panecarboxa-mide], the 50% inhibitory concentration (IC50) in assay [1] was 33.8 nM; in assay [2] (setting [3]), 7.72 nM; in assay [2] (setting [4]), 34.5 nM.
Consider `Cc1cc(-c2c(F)cc(NC(=O)C3(c4ccc(C(F)(F)F)cc4F)CC3)cc2-c2nnn[nH]2)ccn1` [Example 265, N-[3-fluoro-4-(2-methylpyridin-4-yl)-5-(1H-tetrazol-5-yl)phenyl]-1-[2-fluoro-4-(trifluoromethyl)phenyl]cyclopro-panecarboxamide], for which the IC50 in assay [1] amounted to 2.28 nM; in assay [2] (setting [3]), 2.63 nM.
For `Cc1ccc(-c2c(F)cc(NC(=O)C3(c4ccc(C(F)(F)F)cc4F)CC3)cc2-c2nnn[nH]2)cn1` [Example 266, N-[3-fluoro-4-(6-methylpyridin-3-yl)-5-(1H-tetrazol-5-yl)phenyl]-1-[2-fluoro-4-(trifluoromethyl)phenyl]cyclopro-panecarboxamide], in that order: 2.38 nM and 3.45 nM.
As to `O=C(Nc1cc(F)c(-c2ccnc(C(F)(F)F)c2)c(-c2nnn[nH]2)c1)C1(c2ccc(C(F)(F)F)cc2F)CC1` [Example 267, N-{3-fluoro-5-(1H-tetrazol-5-yl)-4-[2-(trifluoromethyl)pyridin-4-yl]phenyl}-1-[2-fluoro-4-(trifluoromethyl)phenyl]cyclopro-panecarboxamide], the values for the IC50 in assay [1] and in assay [2] (setting [3]) were 48.3 nM and 19 nM, respectively.
In the case of `CC(F)(F)c1ccc(-c2ccc(NC(=O)C3(c4ccc(F)c(F)c4)CC3)cc2-c2nnn[nH]2)cn1` [Example 279, N-{4-[6-(1,1-difluoroethyl)py-ridin-3-yl]-3-(1H-tetrazol-5-yl)phenyl}-1-(3,4-difluorophenyl)cy-clopropanecar-boxamide], the IC50 in assay [1] was found to be 16.3 nM; in assay [2] (setting [3]), 23.1 nM.
In the case of `CC(F)(F)c1ccc(-c2ccc(NC(=O)C3(c4ccc(C(F)(F)F)cc4F)CC3)cc2-c2nnn[nH]2)cn1` [Example 281, N-{4-[6-(1,1-difluoroethyl)py-ridin-3-yl]-3-(1H-tetrazol-5-yl)phenyl}-1-[2-fluoro-4-(trifluoromethyl)phenyl]cyclopro-panecarboxamide], the IC50 came to 6.17 nM in assay [1] and 6 nM in assay [2] (setting [3]).
Regarding `Cc1ccc(C2(C(=O)Nc3ccc(-c4ccc(C(F)(F)F)nc4)c(-c4nnn[nH]4)c3)CC2)c(F)c1` [Example 291, 1-(2-fluoro-4-methylphenyl)-N-{3-(1H-tetrazol-5-yl)-4-[6-(trifluoromethyl)pyridin-3-yl]phenyl}cyclopro-panecarboxa-mide], the IC50 in assay [1] was determined as 2.36 nM; in assay [2] (setting [3]), 22.5 nM.
Turning to `COc1cc(C(F)(F)F)ccc1C1(C(=O)Nc2ccc(-c3ccc(C(F)(F)F)nc3)c(-c3nnn[nH]3)c2)CC1` [Example 293, 1-[2-methoxy-4-(trifluoromethyl)phenyl]-N-{3-(1H-tetrazol-5-yl)-4-[6-(trifluoromethyl)pyridin-3-yl]phenyl}cyclopro-panecarboxa-mide], the IC50 in assay [1] is 266 nM; in assay [2] (setting [3]), 297 nM.
With `O=C(Nc1ccc(-c2ccc(C(F)(F)F)nc2)c(-c2nnn[nH]2)c1)C1(c2ccc(OC(F)(F)F)cc2F)CC1` [Example 294, 1-[2-fluoro-4-(trifluoromethoxy)phenyl]-N-{3-(1H-tetrazol-5-yl)-4-[6-(trifluoromethyl)pyridin-3-yl]phenyl}cyclopro-panecarboxa-mide], the IC50 in assay [1] stood at 6.13 nM; in assay [2] (setting [3]), 5.96 nM.
